Target: T1, SMARCA2 (Homo sapiens, UniProt P51531)
T1 construct: endogenous in cells; host or cells: HT1080 (CRISPR HiBiT knock-in clone, generated in house)
Assay: SMARCA2 HiBiT degradation assay (cellular)
Format: cell-based
Conditions: table head names A549; for DC50: 6 h incubation, HiBiT-tagged SMARCA2, luminescence read-out, read-out: HiBit A549 SMARCA2 IP (nM) 6 h; for Emax: A549, 6 h incubation, Emax = amount of residual protein remaining in the cell following compound treatment

T1 sequence (P51531 whole entry): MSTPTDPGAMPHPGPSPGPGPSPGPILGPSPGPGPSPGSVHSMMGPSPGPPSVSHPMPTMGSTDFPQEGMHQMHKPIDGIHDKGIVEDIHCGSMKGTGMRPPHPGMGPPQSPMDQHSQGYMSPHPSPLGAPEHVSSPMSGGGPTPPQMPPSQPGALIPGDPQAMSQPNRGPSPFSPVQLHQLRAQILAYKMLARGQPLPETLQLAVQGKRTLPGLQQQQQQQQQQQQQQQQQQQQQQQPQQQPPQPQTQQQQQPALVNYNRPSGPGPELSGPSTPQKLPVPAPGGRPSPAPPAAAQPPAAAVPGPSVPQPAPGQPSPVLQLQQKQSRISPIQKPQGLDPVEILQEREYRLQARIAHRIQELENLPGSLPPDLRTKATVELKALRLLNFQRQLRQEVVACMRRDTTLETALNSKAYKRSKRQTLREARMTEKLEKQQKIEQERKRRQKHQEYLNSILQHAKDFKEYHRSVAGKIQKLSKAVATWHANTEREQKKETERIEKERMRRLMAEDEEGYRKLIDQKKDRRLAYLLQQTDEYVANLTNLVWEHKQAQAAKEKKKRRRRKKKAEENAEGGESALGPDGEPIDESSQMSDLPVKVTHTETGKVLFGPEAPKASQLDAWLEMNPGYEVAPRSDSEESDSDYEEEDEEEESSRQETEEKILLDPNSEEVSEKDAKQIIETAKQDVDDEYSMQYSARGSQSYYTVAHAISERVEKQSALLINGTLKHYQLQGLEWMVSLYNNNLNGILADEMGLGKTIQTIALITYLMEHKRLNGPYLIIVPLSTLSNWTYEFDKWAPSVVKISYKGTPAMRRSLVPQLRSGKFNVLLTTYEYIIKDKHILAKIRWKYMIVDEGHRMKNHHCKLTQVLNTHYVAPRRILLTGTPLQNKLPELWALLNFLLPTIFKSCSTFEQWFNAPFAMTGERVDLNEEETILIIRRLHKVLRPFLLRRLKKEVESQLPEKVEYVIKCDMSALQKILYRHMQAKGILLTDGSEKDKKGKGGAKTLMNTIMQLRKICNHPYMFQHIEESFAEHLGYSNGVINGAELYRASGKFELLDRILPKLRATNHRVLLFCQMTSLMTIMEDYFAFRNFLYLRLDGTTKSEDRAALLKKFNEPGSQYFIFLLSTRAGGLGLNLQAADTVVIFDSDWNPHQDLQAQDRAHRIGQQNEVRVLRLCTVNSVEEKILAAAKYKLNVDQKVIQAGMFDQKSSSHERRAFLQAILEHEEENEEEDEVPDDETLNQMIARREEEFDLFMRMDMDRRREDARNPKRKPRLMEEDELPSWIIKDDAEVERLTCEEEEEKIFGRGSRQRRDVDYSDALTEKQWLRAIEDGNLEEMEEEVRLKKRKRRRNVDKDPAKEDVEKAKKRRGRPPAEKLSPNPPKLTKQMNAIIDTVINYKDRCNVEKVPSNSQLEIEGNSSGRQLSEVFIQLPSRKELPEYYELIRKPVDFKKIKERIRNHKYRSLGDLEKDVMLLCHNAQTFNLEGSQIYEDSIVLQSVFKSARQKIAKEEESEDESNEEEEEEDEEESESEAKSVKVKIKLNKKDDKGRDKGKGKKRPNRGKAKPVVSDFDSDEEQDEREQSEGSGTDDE

| Compound | DC50 [nM] | Emax [%] |
| --- | --- | --- |
| Nc1nnc(-c2ccccc2O)cc1N1CCN(c2ccccc2)C(C(=O)NC2CCN(C(=O)CCC3CCN(c4ccc5c(c4)C(=O)N(C4CCC(=O)NC4=O)C5=O)CC3)CC2)C1 (stereo not drawn) [Example 54, 4-[3-amino-6-(2-hydroxyphenyl)pyridazin-4-yl]-N-[1-[3-[1-[2-(2,6-dioxo-3-piperidyl)-1,3-dioxo-isoindolin-5-yl]-4-piperidyl]propanoyl]-4-piperidyl]-1-phenyl-piperazine-2-carboxamide] | 42 | 63 |
| Nc1nnc(-c2cc(F)ccc2O)cc1N1C2CCC1CN(c1cccc(OCCN3CCN(CC4CCN(c5ccc6c(c5)C(=O)N(C5CCC(=O)NC5=O)C6=O)CC4)CC3)c1)C2 (stereo not drawn) [Example 57, 5-[4-[[4-[2-[3-[8-[3-amino-6-(5-fluoro-2-hydroxy-phenyl)pyridazin-4-yl]-3,8-diazabicyclo[3.2.1]octan-3-yl]phenoxy]ethyl]piperazin-1-yl]methyl]-1-piperidyl]-2-(2,6-dioxo-3-piperidyl)isoindoline-1,3-dione] | 406 | 67 |
| Nc1nnc(-c2ccccc2O)cc1O[C@@H]1CCCN(c2ccc(N3CCN(CCCCCCCCCn4cc(CNc5cccc6c5C(=O)N(C5CCC(=O)NC5=O)C6=O)nn4)CC3)cc2)C1 (stereo partly drawn) [Example 63, 4-[[1-[9-[4-[4-[(3R)-3-[3-amino-6-(2-hydroxyphenyl)pyridazin-4-yl]oxy-1-piperidyl]phenyl]piperazin-1-yl]nonyl]triazol-4-yl]methylamino]-2-(2,6-dioxo-3-piperidyl)isoindoline-1,3-dione] | 59 | 27 |
| Nc1nnc(-c2cc(F)ccc2O)cc1OC1CCCN(c2ccc(N3CCN(C(=O)CCCCCCCCn4cc(CNc5cccc6c5C(=O)N(C5CCC(=O)NC5=O)C6=O)nn4)CC3)cc2)C1 (stereo not drawn) [Example 64, 4-[[1-[9-[4-[4-[3-[3-amino-6-(5-fluoro-2-hydroxy-phenyl)pyridazin-4-yl]oxy-1-piperidyl]phenyl]piperazin-1-yl]-9-oxo-nonyl]triazol-4-yl]methylamino]-2-(2,6-dioxo-3-piperidyl)isoindoline-1,3-dione] | 82 | 52 |
| Nc1nnc(-c2ccccc2O)cc1OC1CCCN(c2ccc(N3CCN(CCCCCCCCCn4cc(COc5cccc6c5C(=O)N(C5CCC(=O)NC5=O)C6=O)nn4)CC3)cc2)C1 (stereo not drawn) [Example 65, 4-[[1-[9-[4-[4-[3-[3-amino-6-(2-hydroxyphenyl)pyridazin-4-yl]oxy-1-piperidyl]phenyl]piperazin-1-yl]nonyl]triazol-4-yl]methoxy]-2-(2,6-dioxo-3-piperidyl)isoindoline-1,3-dione] | 115 | 31 |
| Nc1nnc(-c2ccccc2O)cc1N1CC(Oc2ccc(CN3CCN(C(=O)CCCCCCNc4cccc5c4C(=O)N(C4CCC(=O)NC4=O)C5=O)CC3)cc2)C1 (stereo not drawn) [Example 67, 4-[[7-[4-[[4-[1-[3-amino-6-(2-hydroxyphenyl)pyridazin-4-yl]azetidin-3-yl]oxyphenyl]methyl]piperazin-1-yl]-7-oxo-heptyl]amino]-2-(2,6-dioxo-3-piperidyl)isoindoline-1,3-dione] | 37 | 54 |
| Nc1nnc(-c2ccccc2O)cc1N1CC(Oc2ccc(CN3CCN(C(=O)CCCCCCCCCNc4cccc5c4C(=O)N(C4CCC(=O)NC4=O)C5=O)CC3)cc2)C1 (stereo not drawn) [Example 68, 4-[[10-[4-[[4-[1-[3-amino-6-(2-hydroxyphenyl)pyridazin-4-yl]azetidin-3-yl]oxyphenyl]methyl]piperazin-1-yl]-10-oxo-decyl]amino]-2-(2,6-dioxo-3-piperidyl)isoindoline-1,3-dione] | 201 | 55 |
| Nc1nnc(-c2ccccc2O)cc1N1CCC(CNC(=O)COc2cccc3c2C(=O)N(C2CCC(=O)NC2=O)C3=O)(c2ccccc2)CC1 (stereo not drawn) [Example 72, N-[[1-[3-amino-6-(2-hydroxyphenyl)pyridazin-4-yl]-4-phenyl-4-piperidyl]methyl]-2-[2-(2,6-dioxo-3-piperidyl)-1,3-dioxo-isoindolin-4-yl]oxy-acetamide] | 273 | 62 |
| Nc1nnc(-c2ccccc2O)cc1N1CCC(CNC(=O)CCNc2cccc3c2C(=O)N(C2CCC(=O)NC2=O)C3=O)(c2ccccc2)CC1 (stereo not drawn) [Example 75, N-((1-(3-amino-6-(2-hydroxyphenyl)pyridazin-4-yl)-4-phenylpiperidin-4-yl)methyl)-3-((2-(2,6-dioxopiperidin-3-yl)-1,3-dioxoisoindolin-4-yl)amino)] | 1430 | 63 |
| Nc1nnc(-c2ccccc2O)cc1N1CCC(CNC(=O)CCCN2CCC(c3ccc(OC4CCC(=O)NC4=O)cc3)CC2)(c2ccccc2)CC1 (stereo not drawn) [Example 78, N-((1-(3-amino-6-(2-hydroxyphenyl)pyridazin-4-yl)-4-phenylpiperidin-4-yl)methyl)-4-(4-(4-((2,6-dioxopiperidin-3-yl)oxy)phenyl)piperidin-1-yl)butanamide] | 23 | 35 |

The remaining lines, values ahead:

| DC50 [nM] | Emax [%] | Compound |
| --- | --- | --- |
| 326 | 46 | Nc1nnc(-c2ccccc2O)cc1N1CCC(CNC(=O)C2CCN(c3cccc4c3C(=O)N(C3CCC(=O)NC3=O)C4=O)CC2)(c2ccccc2)CC1 (stereo not drawn) [Example 71, N-[[1-[3-amino-6-(2-hydroxyphenyl)pyridazin-4-yl]-4-phenyl-4-piperidyl]methyl]-1-[2-(2,6-dioxo-3-piperidyl)-1,3-dioxo-isoindolin-4-yl]piperidine-4-carboxamide] |
| 114 | 49 | Nc1nnc(-c2ccccc2O)cc1N1CCC(CNC(=O)COc2ccc3c(c2)C(=O)N(C2CCC(=O)NC2=O)C3=O)(c2ccccc2)CC1 (stereo not drawn) [Example 73, N-((1-(3-amino-6-(2-hydroxyphenyl)pyridazin-4-yl)-4-phenylpiperidin-4-yl)methyl)-2-((2-(2,6-dioxopiperidin-3-yl)-1,3-dioxoisoindolin-5-yl)oxy)acetamide] |
| 70 | 46 | Nc1nnc(-c2ccccc2O)cc1N1CCC(CNC(=O)C2CCN(c3ccc4c(c3)C(=O)N(C3CCC(=O)NC3=O)C4=O)CC2)(c2ccccc2)CC1 (stereo not drawn) [Example 74, N-((1-(3-amino-6-(2-hydroxyphenyl)pyridazin-4-yl)-4-phenylpiperidin-4-yl)methyl)-1-(2-(2,6-dioxopiperidin-3-yl)-1,3-dioxoisoindolin-5-yl)piperidine-4-carboxamide] |
| 221 | 57 | Nc1nnc(-c2ccccc2O)cc1N1CCC(CNC(=O)CNc2cccc3c2C(=O)N(C2CCC(=O)NC2=O)C3=O)(c2ccccc2)CC1 (stereo not drawn) [Example 76, N-((1-(3-amino-6-(2-hydroxyphenyl)pyridazin-4-yl)-4-phenylpiperidin-4-yl)methyl)-2-((2-(2,6-dioxopiperidin-3-yl)-1,3-dioxoisoindolin-4-yl)amino)acetamide] |
| 77 | 57 | Nc1nnc(-c2ccccc2O)cc1N1CCC(CNC(=O)CC2CCN(c3ccc4c(c3)C(=O)N(C3CCC(=O)NC3=O)C4=O)CC2)(c2ccccc2)CC1 (stereo not drawn) [Example 77, N-((1-(3-amino-6-(2-hydroxyphenyl)pyridazin-4-yl)-4-phenylpiperidin-4-yl)methyl)-2-(1-(2-(2,6-dioxopiperidin-3-yl)-1,3-dioxoisoindolin-5-yl)piperidin-4-yl)acetamide] |
